Measured values published in patent publication US20250108036A1, “COMPOSITIONS FOR REMOVING SENESCENT CELLS AND USES THEREOF” (LIFECEUTIX CO., LTD., priority 2021, published 2025).

What was measured:
[1] = skin aging (dermal thickness, collagen mRNA) in naturally aged mice (Example 7-9); type: in vivo, C57BL6J mice
Description: (§1) After 22-month-old female C57BL6J mice (purchased from KRIBB Laboratory Animal Resource Center) were adapted to the experimental environment for one week, the aged mice were randomized into an experimental group and a control group. 8-week-old mice that were not aged were used as controls. LX-112 was mixed with 0.5% CMC-Na solution (purchased from Sigma) and administered orally at a concentration of 70 mg/kg daily for 21 days. The control group was administered only the solution in the same volume. After drug administration was completed, the method described in each Example below was performed.
Frozen sections of skin tissue were stained with H/E (Hematoxylin/Eosin), and the thickness of the dermis was observed under an optical microscope. Additionally, the mRNA amount of collagen (COL1A1) was measured by qRT-PCR as described in Example 7-2.

[2] = fatigue/weakness tests and body weight in doxorubicin-aged mice (Example 8-7); type: in vivo, C57BL6J mice
Description: After adapting 8-week-old male C57BL6J mice (purchased from KRIBB Laboratory Animal Resource Center) to the experimental environment for 1 week, doxorubicin, an anticancer drug, was administered intraperitoneally at a concentration of 10 mg/kg, and mice that were induced to age for more than 10 days were assigned to an experimental group and a control group. LX-112 was mixed with 0.5% CMC-Na solution (purchased from Sigma) and administered orally at a concentration of 70 mg/kg daily for 21 days. The control group was administered only the solution in the same volume. After drug administration was completed, the method described in each Example below was performed.
In the same way as Example 7-7, in order to analyze fatigue and weakness that occur as a side effect due to treatment with anticancer drugs in mice, activity evaluation (open field test), endurance evaluation (wire hanging test), and muscle strength and grip strength test (grip strength test) were performed. […] In Table 47, the amount of each evaluation after aging was induced by treatment with the anticancer drug was calculated as 100% and compared it with the amount of each evaluation after treatment with LX-112.

[3] = system: foreskin cells in which aging was induced by doxorubicin; experiment: cell viability of senescent foreskin cells with caspase inhibitor QVD-Oph (Example 10, Table 61); type: cell-based, human; details: LX-112 10 μM; for Survial (%): doxorubicin-senescent foreskin cells, 3 days
[4] = Oil Red O staining of liver of obesity-aged mice (Example 9-5); type: in vivo, C57BL6J mice; details: stained area, LX-112 70 mg/kg oral daily 21 days, DIO without LX = 100%
Description: 15-week-old male C57BL6J mice (purchased from Jackson Laboratories), whose obesity was induced by a high-fat diet, were adapted to the experimental environment for one week, and then the mice were randomized into an experimental group and a control group. LX-112 was mixed with 0.5% CMC-Na solution (purchased from Sigma) and administered orally at a concentration of 70 mg/kg daily for 21 days. The control group was administered only the solution in the same volume. After drug administration was completed, the method described in each Example below was performed. Mice were sacrificed and the weight of adipose tissue in each area was measured.
Table 60 calculates the stained area of Oil Red O after aging induced by obesity as 100% and compares it with the stained area of Oil Red O after treatment with LX-112.

[5] = system: foreskin cells, replicative senescence (REP); experiment: CellTiter-Glo cell viability of replicative senescent foreskin cells (Example 3-2); type: cell-based, human; details: 3 days
[6] = system: SAOS-2; experiment: senescent SAOS-2 tumor size in mice (Example 2-3); type: in vivo, BALB/c nude mice; details: doxorubicin 10 mg/kg i.p.; after 10 days LX-112 100 mg/kg oral daily 21 days or repeated doxorubicin
Description: After 7-week-old male BALB/c nude mice (purchased from KRIBB Laboratory Animal Resource Center) were adapted to the experimental environment for one week, the mice were randomized into an experimental group and a control group. SAOS-2 (10^6 cells), a human osteosarcoma cancer cell line cultured in the same manner as Example 2-1, was mixed with PBS (purchased from Welgene) and then anesthetized using 2% isoflurane (purchased from Sigma). It was administered subcutaneously to mice. When the size of the tumor reached about […], doxorubicin was mixed at a concentration of 10 mg/kg in a 1:1 solution of distilled water and PBS (pH 7.2) and administered intraperitoneally to induce tumor aging. After 10 days, LX-112 mixed with 0.5% CMC-Na solution (purchased from Sigma) at a concentration of 100 mg/kg was orally administered daily for 21 days, and the size of the tumor was measured. The control group was repeatedly administered a solution mixed with doxorubicin, and then the size of the tumor was measured.

[7] = system: urea, creatinine, Agtr1a mRNA; experiment: kidney damage markers in naturally aged mice (Example 7-8); type: in vivo, C57BL6J mice; details: LX-112 70 mg/kg oral daily 21 days, aged untreated = 100%
Description: as §1
The amounts of urea and creatinine, markers of kidney damage, in serum collected from mice were measured by spectrophotometry using a kit (purchased from BioAssay Systems and Sigma). Additionally, the amount of Agtr1a mRNA, a kidney damage marker, was measured by qRT-PCR as described in Example 7-2. […] The amount of each factor after inducing aging was calculated as 100% and compared with the amount of each factor after treatment with LX-112.

[8] = system: umbilical cord-derived mesenchymal stem cells; experiment: death of senescent stem cells by LX-112; type: cell-based, human; details: LX-112 10 μM
Description: In addition to somatic cells, the death of senescent cells by LX-112 was confirmed to be about 50% in stem cells (umbilical cord-derived mesenchymal stem cells, purchased from ATCC) at a concentration of 10 μM. From this, it was confirmed that LX-112 can effectively remove senescent cells by inducing their death.

[9] = system: normally proliferating foreskin cells; experiment: survival of normally proliferating foreskin cells treated with medium supernatant (secreted fluid) of compound-killed cells (Example 13, Table 68); type: cell-based, human; details: after 3 days
Description: After treating cells with the test compound at a high concentration that induces the death of most cells in both non-senescence-induced and senescence-induced cells, the cells were washed three times with PBS to remove the test compound, and replaced with fresh medium and cultured for an additional 3 hours at the time when the compound has entered into the cell but has not yet induced cell death (approximately 1 to 3 hours after compound treatment). During this additional culture, by checking with an optical microscope, etc., the medium supernatants containing secreted fluid from normally proliferating and senescent cells in which cell death was induced were obtained. The obtained medium supernatant was replaced with the medium of normally proliferating and senescent cells, respectively, and cell survival rate was measured after 3 days.

SMILES | Collagen mRNA (Fold) ([1]; COL1A1, skin, LX-112, aged untreated = 1) | Dermal Thickness (μm) ([1]; LX-112 70 mg/kg oral daily 21 days) | Open Field Test Time in Center (%) ([2]; Table 47, doxorubicin-aged mice, LX-112 70 mg/kg oral daily 21 days, DOX without LX = 100) | Mean Body Weight (g) ([2]; mice, doxorubicin 10 mg/kg i.p. without or with LX-112 70 mg/kg oral daily 21 days) | Survial (%) ([3]; QVD-Oph 20 μM applied 4 hours before) | Survial (%) ([3]; without QVD-Oph) | inhibition of the death of senescent cells by the caspase inhibitor ([3]; QVD-Oph 20 μM, ABT-263 1 μM) | Oil Red O (%) [4] | Survival (%) ([5]; LX-112 1.1 μM) | Survival (%) ([5]; LX-112 10 μM) | Tumor Diameter (mm) [6] | Agtr1a mRNA (%) ([7]; kidney damage marker) | Creatinine (%) ([7]; serum) | Urea (%) ([7]; serum) | death of senescent cells [8] | Survival (%) ([9]; supernatant from compound-treated medium without cells (No Cells)) | Survival (%) ([9]; supernatant from death-induced proliferating foreskin cells (compound 30 μM)) | Survival (%) ([9]; supernatant from death-induced senescent foreskin cells (compound 30 μM))
O=c1c2ccccc2[se]n1CCn1[se]c2ccccc2c1=O [LX-112, 1,2-[bis(1,2-benzisoselenazolone-3(2H)-ketone)]ethane] | 2.3 (±0.4) Fold | 265 (±17.2) μm | 129 (±15) % | 22.8 (±3.1) g | 53.9 (±2.2) % | 39.5 (±3.7) % | did not effectively inhibit | 74 (±7.3) % | 59 (±6) % | 1 (±0.9) % | 6.2 (±4.8) mm | 64 (±7) % | 87 (±7.8) % | 69 (±6) % | about 50% |  |  | 
COC(=O)c1ccc([C@H]2c3[nH]c4ccccc4c3C[C@H](C(=O)OC)N2C(=O)CCl)cc1 [LX-405] |  |  |  |  |  |  |  |  |  |  |  |  |  |  |  | 99.4 (±2.4) % | 104 (±3) % | 100.2 (±5.6) %
